Source: patent publication US12071453B2, “Neuroactive steroids, compositions, and uses thereof” (Sage Therapeutics, Inc., priority 2013, dated 2024)

Experiments:
[1] = target: T1, recombinant α4β3δ GABAA receptors (Homo sapiens, UniProt P28472+P48169); assay: Manual patch clamp electrophysiology in CHO cells transiently transfected with α4β3δ; type: cell-based; conditions: 10 μM compound, 2 μM GABA (EC20), read-out: GABA (α4β3δ) Manual patch in CHO, % efficacy at 10 μM
T1 construct: expressed in transfected cells; host or cells: CHO cells, transiently transfected (Lipofectamine)

[2] = target: T2, recombinant α1β2γ2 GABAA receptors (Homo sapiens, UniProt P14867+P47870); assay: Patch clamp electrophysiology (QPatch) in LTK cells stably transfected with α1β2γ2; type: cell-based; conditions: 10 μM compound, 2 μM GABA (EC20), read-out: GABA (α1β2γ2) Qpatch in Ltk, % efficacy at 10 μM
T2 construct: expressed in transfected cells; host or cells: LTK cells, stably transfected

[3] = target: [35S]-TBPS binding in rat brain cortical membranes; assay: Steroid inhibition of [35S]-TBPS binding, rat brain cortical membranes; conditions: 3 nM [35S]-TBPS, in the presence of 5 μM GABA, read-out: 35S-TBPS Radioligand Displacement (IC50)
Method in brief: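 Washed P2 cortical membranes from Sprague-Dawley rats were incubated 90 min at room temperature with 3 nM [35S]-TBPS, 5 μM GABA and test steroid (0.5% DMSO) in 200 mM NaCl/50 mM Na–K phosphate, pH 7.4. Nonspecific binding was defined with 2 μM unlabeled TBPS, and samples were filtered and counted. IC50 and Imax came from non-linear fits, reported as mean ± SEM.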

[4] = target: T3, GABAA receptors composed of the α4β3δ subunits (GABRA4/GABRB3/GABRD) (Homo sapiens, UniProt P28472+P48169); assay: Two Electrode Voltage Clamp (TEVC), GABA receptor potentiation in Xenopus laevis oocytes, α4β3δ; type: cell-based; conditions: 10 μM compound, 3 μM GABA, read-out: GABA (α4β3δ) % efficacy at 10 μM
T3 construct: expressed in transfected cells; host or cells: Xenopus laevis oocytes, injected (ratio 5:1:5)
Procedure: (§1) The Two Electrode Voltage Clamp (TEVC) technique was used to investigate the effects of compounds at a concentration of 10 μM on GABAA receptors composed of the α1β2γ2 or α4β3δ subunits expressed in oocytes from the Xenopus laevis. GABA-evoked currents were recorded from oocytes that expressed the GABA receptors and the modulatory effects of the test items on these currents were investigated.
(§2) Ovaries were harvested from Xenopus laevis females that had been deeply anesthetized by cooling at 4° C. and immersion in Tricaine methanesulfonate (MS-222 at a concentration of 150 mg/L) in sodium bicarbonate (300 mg/L). Once anesthetized the animal was decapitated and pithed following the rules of animal rights from the Geneva canton. A small piece of ovary was isolated for immediate preparation while the remaining part was placed at 4° C. in a sterile Barth solution containing in mM NaCl 88, KCl 1, NaHCO3 2.4, HEPES 10, MgSO4·7H2O 0.82, Ca(NO3)2·4H2O 0.33, CaCl2·6H2O 0.41, at pH 7.4, and supplemented with 20 μg/ml of kanamycin, 100 unit/ml penicillin and 100 μg/ml streptomycin. All recordings were performed at 18° C. and cells were super-fused with medium containing in mM: NaCl 82.5, KCl 2.5, HEPES 5, CaCl2·2H2O, ·6H2O 1, pH 7.4.
(§3) Plasmids containing the RNAs of the human GABRA1/GABRB2/GABRG2 and GABRA4/GABRB3/GABRD genes were injected into oocytes using a proprietary automated injection device (Hogg el al., J. Neurosci. Methods, (2008) 169: 65-75). These genes encode for the α1β2γ2 and α4β3δ GABAA subunits respectively. Receptor expression was assessed using electrophysiology at least two days later. The ratio of RNA injection for α1β2γ2 was 1:1:1 and for α4β3δ was 5:1:5. Electrophysiological recordings were made using an automated process equipped with standard TEVC and data were captured and analyzed using a proprietary data acquisition and analysis software running under Matlab (Mathworks Inc.). The membrane potential of the oocytes was maintained at −80 mV throughout the experiments. To explore the effects of proprietary compounds, currents were evoked by applying 10 μM (α1β2γ2) or 3 μM (α4β3δ) GABA for 30 s. These concentrations approximated the EC50 concentration of GABA at each receptor subtype. Oocytes were then re-exposed to GABA again for 30 s. 15 s after beginning the GABA application, test article was co-applied at a concentration of 10 μM for 15 s. Potentiation of the peak current was assessed. Data was filtered at 10 Hz, captured at 100 Hz and analyzed using proprietary data acquisition and analysis software running under Matlab (Mathworks Inc.). For statistical analysis values were computed either with Excel (Microsoft) or Matlab (mathworks Inc.). To obtain mean measurements with standard deviations, all experiments were carried out using at least three cells.

[5] = target: T4, GABAA receptors composed of the α1β2γ2 subunits (GABRA1/GABRB2/GABRG2) (Homo sapiens, UniProt P14867+P47870); assay: Two Electrode Voltage Clamp (TEVC), GABA receptor potentiation in Xenopus laevis oocytes, α1β2γ2; type: cell-based; conditions: 10 μM compound, 10 μM GABA, read-out: GABA (α1β2γ2) % efficacy at 10 μM
T4 construct: expressed in transfected cells; host or cells: Xenopus laevis oocytes, injected (ratio 1:1:1)
Procedure: as §1, §2, §3

T1 sequence (P48169 36-554): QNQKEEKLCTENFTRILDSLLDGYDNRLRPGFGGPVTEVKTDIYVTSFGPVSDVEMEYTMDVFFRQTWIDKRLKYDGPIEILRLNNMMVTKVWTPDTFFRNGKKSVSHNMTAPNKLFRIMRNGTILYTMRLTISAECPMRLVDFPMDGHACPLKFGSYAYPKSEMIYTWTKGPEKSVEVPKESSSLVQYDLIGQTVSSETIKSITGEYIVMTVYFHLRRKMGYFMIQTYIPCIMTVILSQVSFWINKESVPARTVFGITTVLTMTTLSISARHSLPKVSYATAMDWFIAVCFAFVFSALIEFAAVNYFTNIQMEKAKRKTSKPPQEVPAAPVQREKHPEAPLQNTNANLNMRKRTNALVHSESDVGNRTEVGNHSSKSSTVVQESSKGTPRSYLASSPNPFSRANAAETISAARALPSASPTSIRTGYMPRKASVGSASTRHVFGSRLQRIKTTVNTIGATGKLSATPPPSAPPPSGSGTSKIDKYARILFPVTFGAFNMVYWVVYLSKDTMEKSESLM
T1 sequence (P28472 26-473): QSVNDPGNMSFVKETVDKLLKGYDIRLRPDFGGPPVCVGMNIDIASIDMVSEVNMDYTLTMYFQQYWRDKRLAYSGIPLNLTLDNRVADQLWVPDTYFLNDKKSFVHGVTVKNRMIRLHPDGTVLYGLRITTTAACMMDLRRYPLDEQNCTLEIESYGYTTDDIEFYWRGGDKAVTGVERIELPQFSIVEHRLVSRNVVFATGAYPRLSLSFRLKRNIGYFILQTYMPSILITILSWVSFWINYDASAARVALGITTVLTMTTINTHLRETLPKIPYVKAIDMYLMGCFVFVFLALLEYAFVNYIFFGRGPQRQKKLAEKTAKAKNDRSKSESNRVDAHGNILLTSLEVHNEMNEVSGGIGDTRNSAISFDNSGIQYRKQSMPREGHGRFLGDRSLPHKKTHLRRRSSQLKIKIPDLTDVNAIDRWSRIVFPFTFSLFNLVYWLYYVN
T1 sequence (O14764 25-452 partner): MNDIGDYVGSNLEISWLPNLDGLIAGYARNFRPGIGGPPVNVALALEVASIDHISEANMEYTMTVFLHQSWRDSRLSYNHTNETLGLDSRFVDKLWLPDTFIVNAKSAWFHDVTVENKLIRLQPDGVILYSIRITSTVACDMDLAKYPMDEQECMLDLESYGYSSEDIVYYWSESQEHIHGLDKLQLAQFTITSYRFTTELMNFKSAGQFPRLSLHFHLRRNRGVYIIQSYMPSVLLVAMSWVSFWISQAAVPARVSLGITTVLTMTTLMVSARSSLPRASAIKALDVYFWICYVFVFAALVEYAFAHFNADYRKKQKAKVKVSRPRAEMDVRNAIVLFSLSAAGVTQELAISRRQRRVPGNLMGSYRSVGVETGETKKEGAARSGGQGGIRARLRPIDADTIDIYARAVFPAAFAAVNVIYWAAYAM
T3 sequence (P48169 36-554): as the sequence (P48169 36-554) above
T3 sequence (P28472 26-473): as the sequence (P28472 26-473) above
T3 sequence (O14764 25-452 partner): as the sequence (O14764 25-452 partner) above
T4 sequence (P14867 28-456): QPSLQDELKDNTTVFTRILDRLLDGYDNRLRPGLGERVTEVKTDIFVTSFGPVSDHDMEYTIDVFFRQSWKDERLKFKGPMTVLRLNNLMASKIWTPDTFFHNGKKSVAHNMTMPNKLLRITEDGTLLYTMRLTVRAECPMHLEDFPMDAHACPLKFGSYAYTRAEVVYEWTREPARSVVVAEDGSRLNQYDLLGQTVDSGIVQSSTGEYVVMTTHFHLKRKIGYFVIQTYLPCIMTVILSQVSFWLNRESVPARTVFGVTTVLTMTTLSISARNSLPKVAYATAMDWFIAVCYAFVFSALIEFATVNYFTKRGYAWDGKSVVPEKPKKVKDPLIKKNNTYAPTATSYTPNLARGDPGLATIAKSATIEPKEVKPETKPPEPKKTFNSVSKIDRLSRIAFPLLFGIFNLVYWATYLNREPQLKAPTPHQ
T4 sequence (P47870 26-512): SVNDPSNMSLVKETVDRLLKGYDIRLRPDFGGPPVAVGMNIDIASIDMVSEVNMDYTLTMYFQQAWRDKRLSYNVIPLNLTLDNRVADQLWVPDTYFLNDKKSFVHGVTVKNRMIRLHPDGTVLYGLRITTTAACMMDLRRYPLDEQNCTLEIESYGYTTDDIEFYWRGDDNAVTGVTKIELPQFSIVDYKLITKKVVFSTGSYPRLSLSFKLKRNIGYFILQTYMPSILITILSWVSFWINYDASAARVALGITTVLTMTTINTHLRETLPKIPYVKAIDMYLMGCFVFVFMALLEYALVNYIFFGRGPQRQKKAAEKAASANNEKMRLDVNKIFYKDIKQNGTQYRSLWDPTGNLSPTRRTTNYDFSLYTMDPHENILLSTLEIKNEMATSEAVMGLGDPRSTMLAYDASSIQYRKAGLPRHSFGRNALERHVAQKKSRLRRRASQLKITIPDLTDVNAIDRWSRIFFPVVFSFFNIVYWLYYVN
T4 sequence (P18507 40-475 partner): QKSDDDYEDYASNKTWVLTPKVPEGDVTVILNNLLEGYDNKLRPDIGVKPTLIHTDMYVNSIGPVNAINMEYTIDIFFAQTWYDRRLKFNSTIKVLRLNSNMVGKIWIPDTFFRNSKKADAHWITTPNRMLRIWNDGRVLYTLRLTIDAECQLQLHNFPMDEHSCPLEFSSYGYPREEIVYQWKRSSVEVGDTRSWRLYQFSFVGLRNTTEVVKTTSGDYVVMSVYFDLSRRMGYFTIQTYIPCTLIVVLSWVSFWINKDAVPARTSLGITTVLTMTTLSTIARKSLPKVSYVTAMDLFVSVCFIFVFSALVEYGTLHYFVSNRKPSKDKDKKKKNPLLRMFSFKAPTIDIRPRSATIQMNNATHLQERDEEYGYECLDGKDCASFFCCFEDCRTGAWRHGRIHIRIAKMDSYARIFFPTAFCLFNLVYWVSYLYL
T2 sequence (P14867 28-456): as the sequence (P14867 28-456) above
T2 sequence (P47870 26-512): as the sequence (P47870 26-512) above
T2 sequence (P18507 40-475 partner): as the sequence (P18507 40-475 partner) above

COC[C@]12CC[C@@](C)(O)C[C@@H]1CC[C@H]1[C@@H]3CC[C@H](C(=O)Cn4nccn4)[C@@]3(C)CC[C@@H]12 [Compound 1]
Emax at 10 µM [1]: > 500% | Emax at 10 µM [2]: 100 to 500% | IC50 [3]: 10 to 50 nM

COC[C@]12CC[C@@](C)(O)C[C@@H]1CC[C@H]1[C@@H]3CC[C@H](C(=O)Cn4nnnc4C)[C@@]3(C)CC[C@@H]12 [Compound 16]
Emax at 10 µM [1]: > 500% | Emax at 10 µM [2]: > 500% | IC50 [3]: 10 to 50 nM

COC[C@]12CC[C@@](C)(O)C[C@@H]1CC[C@H]1[C@@H]3CC[C@H](C(=O)Cn4ccc(C#N)n4)[C@@]3(C)CC[C@@H]12 [Compound 19]
Emax at 10 µM [1]: 100 to 500% | Emax at 10 µM [2]: 100 to 500%

COC[C@]12CC[C@@](C)(O)C[C@H]1CC[C@H]1[C@@H]3CC[C@H](C(=O)Cn4nnnc4C)[C@@]3(C)CC[C@@H]12 [Compound 30]
Emax at 10 µM [1]: > 500% | Emax at 10 µM [2]: 100 to 500% | IC50 [3]: < 10 nM

COC[C@]12CC[C@@](C)(O)C[C@@H]1CC[C@H]1[C@@H]3CC[C@H](C(=O)Cn4nc5ccc(Cl)cc5n4)[C@@]3(C)CC[C@@H]12 [Compound 35]
Emax at 10 µM [1]: 100 to 500% | Emax at 10 µM [2]: 100 to 500% | IC50 [3]: 10 to 50 nM

COC[C@]12CC[C@@](C)(O)C[C@@H]1CC[C@H]1[C@@H]3CC[C@H](C(=O)Cn4nnc5ccc(Cl)cc54)[C@@]3(C)CC[C@@H]12 [Compound 36]
Emax at 10 µM [1]: 100 to 500% | Emax at 10 µM [2]: 100 to 500% | IC50 [3]: 10 to 50 nM

COC[C@]12CC[C@@](C)(O)C[C@@H]1CC[C@H]1[C@@H]3CC[C@H](C(=O)Cn4nnc5cc(Cl)ccc54)[C@@]3(C)CC[C@@H]12 [Compound 37]
Emax at 10 µM [1]: > 500% | Emax at 10 µM [2]: > 500% | IC50 [3]: 10 to 50 nM

COC[C@]12CC[C@@](C)(O)C[C@@H]1CC[C@H]1[C@@H]3CC[C@H](C(=O)Cn4nc5ccc(F)cc5n4)[C@@]3(C)CC[C@@H]12 [Compound 43]
Emax at 10 µM [1]: 100 to 500% | Emax at 10 µM [2]: > 500% | IC50 [3]: < 10 nM

COC[C@]12CC[C@@](C)(O)C[C@@H]1CC[C@H]1[C@@H]3CC[C@H](C(=O)Cn4nnc5ccc(F)c(F)c54)[C@@]3(C)CC[C@@H]12 [Compound 52]
Emax at 10 µM [1]: > 500% | Emax at 10 µM [2]: 100 to 500% | IC50 [3]: 10 to 50 nM

COC[C@]12CC[C@@](C)(O)C[C@@H]1CC[C@H]1[C@@H]3CC[C@H](C(=O)Cn4nc5ccc(F)c(F)c5n4)[C@@]3(C)CC[C@@H]12 [Compound 54]
Emax at 10 µM [1]: > 500% | Emax at 10 µM [2]: 100 to 500% | IC50 [3]: 10 to 50 nM

COC[C@]12CC[C@@](C)(O)C[C@@H]1CC[C@H]1[C@@H]3CC[C@H](C(=O)Cn4nnc5ccc(OC)c(OC)c54)[C@@]3(C)CC[C@@H]12 [Compound 62]
Emax at 10 µM [4]: 1000 to 1500% | Emax at 10 µM [5]: 500 to 1000% | IC50 [3]: 10 to 50 nM

COC[C@]12CC[C@@](C)(O)C[C@@H]1CC[C@H]1[C@@H]3CC[C@H](C(=O)Cn4nc5ccc(OC)c(OC)c5n4)[C@@]3(C)CC[C@@H]12 [Compound 64]
Emax at 10 µM [4]: 500 to 1000% | Emax at 10 µM [5]: 1000 to 1500% | IC50 [3]: 10 to 50 nM

COC[C@]12CC[C@@](C)(O)C[C@@H]1CC[C@H]1[C@@H]3CC[C@H](C(=O)Cn4nnc5c(OC)cc(OC)cc54)[C@@]3(C)CC[C@@H]12 [Compound 66]
Emax at 10 µM [4]: 1000 to 1500% | Emax at 10 µM [5]: 50 to 500% | IC50 [3]: 10 to 50 nM
